Experimental data taken from US6914045B2, “Glycopeptide antibiotics” (Wyeth Holdings Corporation, priority 2001, dated 2005).
In brackets after ≈: the same amount, converted by molar mass.

Experiments:
Assay in all cases: in vitro antibacterial evaluation, MIC by broth dilution
Type in all cases: cell-based
[1] = system: Escherichia coli; settings: 18 hours at 35° C.
[2] = system: Staphylococcus sp.; settings: broth dilution, 18 hours at 35° C.
In short: (§1)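 Read-out: the lowest concentration at which the test strain fails to grow. Serial dilutions (64-0.06 μg/mL) in Muller-Hinton II […], 5×10^5 CFU/mL inoculum, NCCLS M7-A2 procedure.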

[3] = system: Enterococcus sp.; settings: broth dilution, 18 hours at 35° C.
In short: as §1

[4] = system: Streptococcus sp.; settings: broth dilution, 18 hours at 35° C.
In short: as §1

CC(c1ccccc1)C1NC(=O)CNC(=O)C(CO)NC(=O)C(C(O)C2CNC(=N)N2C2OC(CO)C(O)C3OC(C)(C)OC32)NC(=O)C(C(O)C2CNC(=N)N2)NC(=O)C(Cc2ccc(OC3OC(CO)C(OC4OC5COC(C)(C)OC5C5OC(C)(C)OC45)C4OC(C)(C)OC34)cc2)NC1=O (stereo not shown) [Example 229b]
MIC Escherichia coli (ATCC 25922) [1]: >128 µg/mL | MIC Escherichia coli (GC 4559) [1]: >128 µg/mL | MIC Escherichia coli (GC 4560) [1]: 32 µg/mL (≈ 22 µM) | MIC Coagulase Negative Staphylococcus (GC 4547) [2]: >128 µg/mL | MIC Coagulase Negative Staphylococcus (GC 4548) [2]: >128 µg/mL | MIC Coagulase Negative Staphylococcus (GC 4549) [2]: >128 µg/mL | MIC Coagulase Negative Staphylococcus (GC 4551) [2]: >128 µg/mL | MIC Coagulase Negative Staphylococcus (GC 6257) [2]: >128 µg/mL | MIC Staphylococcus aureus (ATCC 29213) [2]: >128 µg/mL | MIC Staphylococcus aureus (GC 1131) [2]: >128 µg/mL | MIC Staphylococcus aureus (GC 3051) [2]: >128 µg/mL | MIC Staphylococcus aureus (GC 3053) [2]: >128 µg/mL | MIC Staphylococcus aureus (GC 4541) [2]: >128 µg/mL | MIC Staphylococcus aureus (GC 4542) [2]: >128 µg/mL | MIC Staphylococcus aureus (GC 4544) [2]: >128 µg/mL | MIC Staphylococcus aureus (GC 4545) [2]: >128 µg/mL | MIC Staphylococcus aureus-SMITH (GC 4543) [2]: >128 µg/mL | MIC Staphylococcus haemolyticus (GC 4546) [2]: >128 µg/mL | MIC Staphylococcus aureus (ATCC 29213) ([2]; strain ATCC 29213): >128 µg/mL | MIC Staphylococcus aureus (GC 1131) ([2]; strain GC 1131): >128 µg/mL | MIC Staphylococcus aureus (GC 3051) ([2]; strain GC 3051): >128 µg/mL | MIC Staphylococcus aureus (GC 3053) ([2]; strain GC 3053): >128 µg/mL | MIC Staphylococcus aureus (GC 4541) ([2]; strain GC 4541): >128 µg/mL | MIC Staphylococcus aureus (GC 4542) ([2]; strain GC 4542): >128 µg/mL | MIC Staphylococcus aureus-SMITH (GC 4543) ([2]; strain GC 4543): >128 µg/mL | MIC Staphylococcus aureus (GC 4544) ([2]; strain GC 4544): >128 µg/mL | MIC Staphylococcus aureus (GC 4545) ([2]; strain GC 4545): >128 µg/mL | MIC Staphylococcus haemolyticus (GC 4546) ([2]; strain GC 4546): >128 µg/mL | MIC Coagulase Negative Staphylococcus (GC 4547) ([2]; strain GC 4547): >128 µg/mL | MIC Coagulase Negative Staphylococcus (GC 4548) ([2]; strain GC 4548): >128 µg/mL | MIC Coagulase Negative Staphylococcus (GC 4549) ([2]; strain GC 4549): >128 µg/mL | MIC Coagulase Negative Staphylococcus (GC 4551) ([2]; strain GC 4551): >128 µg/mL | MIC Coagulase Negative Staphylococcus (GC 6257) ([2]; strain GC 6257): >128 µg/mL | MIC Enterococcus avium (GC 4558) [3]: 64 µg/mL (≈ 44 µM) | MIC Enterococcus faecalis (ATCC 29212) [3]: >128 µg/mL | MIC Enterococcus faecalis (GC 2242) [3]: 128 µg/mL (≈ 87.9 µM) | MIC Enterococcus faecalis (GC 2691) [3]: >128 µg/mL | MIC Enterococcus faecalis (GC 3059) [3]: >128 µg/mL | MIC Enterococcus faecalis (GC 4552) [3]: >128 µg/mL | MIC Enterococcus faecalis (GC 4553) [3]: 128 µg/mL (≈ 87.9 µM) | MIC Enterococcus faecalis (GC 4554) [3]: >128 µg/mL | MIC Enterococcus faecalis (GC 6189) [3]: >128 µg/mL | MIC Enterococcus faecium (GC 2243) [3]: >128 µg/mL | MIC Enterococcus faecium (GC 4556) [3]: >128 µg/mL | MIC Enterococcus faecium (GC 4557) [3]: 128 µg/mL (≈ 87.9 µM) | MIC Enterococcus faecalis (ATCC 29212) ([3]; inoculum 5×10^5 CFU/mL, strain ATCC 29212): >128 µg/mL | MIC Enterococcus faecalis (GC 2242) ([3]; inoculum 5×10^5 CFU/mL, strain GC 2242): 128 µg/mL (≈ 87.9 µM) | MIC Enterococcus faecium (GC 2243) ([3]; inoculum 5×10^5 CFU/mL, strain GC 2243): >128 µg/mL | MIC Enterococcus faecalis (GC 2691) ([3]; inoculum 5×10^5 CFU/mL, strain GC 2691): >128 µg/mL | MIC Enterococcus faecalis (GC 3059) ([3]; inoculum 5×10^5 CFU/mL, strain GC 3059): >128 µg/mL | MIC Enterococcus faecalis (GC 4552) ([3]; inoculum 5×10^5 CFU/mL, strain GC 4552): >128 µg/mL | MIC Enterococcus faecalis (GC 4553) ([3]; inoculum 5×10^5 CFU/mL, strain GC 4553): 128 µg/mL (≈ 87.9 µM) | MIC Enterococcus faecalis (GC 4554) ([3]; inoculum 5×10^5 CFU/mL, strain GC 4554): >128 µg/mL | MIC Enterococcus faecium (GC 4556) ([3]; inoculum 5×10^5 CFU/mL, strain GC 4556): >128 µg/mL | MIC Enterococcus faecium (GC 4557) ([3]; inoculum 5×10^5 CFU/mL, strain GC 4557): 128 µg/mL (≈ 87.9 µM) | MIC Enterococcus avium (GC 4558) ([3]; inoculum 5×10^5 CFU/mL, strain GC 4558): 64 µg/mL (≈ 44 µM) | MIC Enterococcus faecalis (GC 6189) ([3]; inoculum 5×10^5 CFU/mL, strain GC 6189): >128 µg/mL | MIC Streptococcus agalactiae (GC 4564) [4]: >128 µg/mL | MIC Streptococcus pneumoniae (ATCC 6301) [4]: 128 µg/mL (≈ 87.9 µM) | MIC Streptococcus pneumoniae (GC 1894) [4]: 128 µg/mL (≈ 87.9 µM) | MIC Streptococcus pneumoniae (GC 4565) [4]: 128 µg/mL (≈ 87.9 µM) | MIC Streptococcus pyogenes (GC 4563) [4]: >128 µg/mL | MIC Streptococcus pneumoniae (ATCC 6301) ([4]; inoculum 5×10^5 CFU/mL, strain ATCC 6301): 128 µg/mL (≈ 87.9 µM) | MIC Streptococcus pneumoniae (GC 1894) ([4]; inoculum 5×10^5 CFU/mL, strain GC 1894): 128 µg/mL (≈ 87.9 µM) | MIC Streptococcus pyogenes (GC 4563) ([4]; inoculum 5×10^5 CFU/mL, strain GC 4563): >128 µg/mL | MIC Streptococcus agalactiae (GC 4564) ([4]; inoculum 5×10^5 CFU/mL, strain GC 4564): >128 µg/mL | MIC Streptococcus pneumoniae (GC 4565) ([4]; inoculum 5×10^5 CFU/mL, strain GC 4565): 128 µg/mL (≈ 87.9 µM)
